One data set relates to E. coli. As to the kind of experiment: Cis PMD MIC/MBC determination, broth dilution and sub-culture. Format: cell-based. The arrangement: key to bacterial growth: A “+” indicates bacterial growth; a “−” indicates that bacterial growth is prevented. To be noted: for bacterial growth: overnight 37° C. The protocol: MIC—minimum inhibitory concentration. This is the concentration of PMD which prevents bacterial growth. […] Thus, for E. Coli below, the minimum inhibitory concentration is 0.25% PMD in 1.25% ethanol.
MBC—minimum bactericidal concentration. This is the concentration of PMD which kills the bacteria. A “ ? ” indicates live bacteria are present.
Cis PMD was dissolved in Absolute Ethanol (0.2 g/ml) to give 20% solution. This was further diluted in water to give 10% in 50% EtOH. 200 μl was added to 0.8 ml Iso-sensitest broth to give a 2% solution in 10% EtOH. Serial 2-fold dilutions in ISB were then carried out and 20 μl E. coli (McFarlane 0.5) were added to each tube and incubated overnight at 37° C. After 18 hours, tubes showing no growth were sub-cultured.

Another data set is described as follows: Solubility in water. It is filed as physicochemical. The source says:
A composition for use in accordance with the invention can comprise PMD and a carrier.

Another data set has as its system acne. As to the kind of experiment: Effect against acne. The source says:
The etiology of acne is not completely understood, but, in some instances, it is believed that acne has a bacterial etiology.

A short description of data set [1]: Toxicity tests for regulatory authorities. The source says:
PMD is the active ingredient in our MOSIGUARD™ insect repellant. We have conducted tests to show regulatory authorities that PMD is not toxic, and we have marketed our insect repellent for several years and there has been no report of any significant toxicity thereof. Potentially, therefore, the medical uses of PMD may be topical or systemic. Systemic administration may be by way of an oral dosage form or by a parenteral route, such as by intra-venous injection.

Another data set concerns certain strains of MRSA. Description: Tests against MRSA. Format: cell-based, Staphylococcus aureus. The source says:
In a further aspect, therefore, the invention provides the use of PMD against MRSA.

The next data set relates to S. pyogenes. Description: Cis PMD MIC/MBC determination, broth dilution and sub-culture. Format: cell-based. To be noted: overnight 37° C. The arrangement: key: A “+” indicates bacterial growth; a “−” indicates that bacterial growth is prevented.
Another data set concerns MRSA 15. The data set is described as above. Further details: key: A “+” indicates bacterial growth; a “−” indicates that bacterial growth is prevented. It is filed as cell-based, Staphylococcus aureus. As to conditions: overnight 37° C.
The subject of another data set is MRSA 16. Described as above. It is filed as cell-based, Staphylococcus aureus. The arrangement: key: A “+” indicates bacterial growth; a “−” indicates that bacterial growth is prevented. As to conditions: overnight 37° C.
The test system of another data set is S. aureus (oxford). Described as above. Format: cell-based. As to conditions: overnight 37° C. The arrangement: key: A “+” indicates bacterial growth; a “−” indicates that bacterial growth is prevented.
In a further data set the test system is P. aeruginosa. Described as above. Format: cell-based. The arrangement: key: A “+” indicates bacterial growth; a “−” indicates that bacterial growth is prevented. As to conditions: overnight 37° C.

SMILES strings stand for the structures.

`C[C@H]1CC[C@H](C(C)(C)O)[C@H](O)C1` (racemic) [PMD, p-menthane-3,8-diol] showed a minimum inhibitory concentration in the data set with E. coli (in 1.25% ethanol) of 0.25%. The minimum bactericidal concentration in the data set with E. coli (in 2.5% ethanol) came out at 0.5%. Further, the solubility in water result in the data set “Solubility in water” was “poorly soluble”. Moreover, the effectiveness against acne entry with acne is “effective”. For the same compound, the toxicity result in data set [1] was “not toxic”. Also, the “effectiveness against MRSA” value in the data set with certain strains of MRSA was “effective”.
Turning to `CC1CCC(C(C)(C)O)C(O)C1` (stereo not drawn) [Cis PMD], the bacterial growth entry in the data set with E. coli (0.06% PMD, 0.3% alcohol) is given as “+”; with E. coli (0.125% PMD, 0.6% alcohol), “+”; in the data set on E. coli (0.25% PMD, 1.25% alcohol), “−”; with E. coli (0.5% PMD, 2.5% alcohol), “−”; with E. coli (1% PMD, 5% alcohol), “−”; in the data set with E. coli (2% PMD, 10% alcohol) it was “−”. In addition, the bacterial growth result is listed as “+” in the data set with S. pyogenes (0.06% PMD, 0.3% alcohol); “+” in the data set with S. pyogenes (0.125% PMD, 0.6% alcohol); “−” with S. pyogenes (0.25% PMD, 1.25% alcohol); “−” in the data set with S. pyogenes (0.5% PMD, 2.5% alcohol); “−” with S. pyogenes (1% PMD, 5% alcohol); “−” with S. pyogenes (2% PMD, 10% alcohol). In addition, the bacterial growth result in the data set with MRSA 15 (0.06% PMD, 0.3% alcohol) is listed as “+”; in the data set on MRSA 15 (0.125% PMD, 0.6% alcohol), “+”; with MRSA 15 (0.25% PMD, 1.25% alcohol), “+”; in the data set with MRSA 15 (0.5% PMD, 2.5% alcohol), “−”; in the data set on MRSA 15 (2% PMD, 10% alcohol), “−”; in the data set with MRSA 16 (0.06% PMD, 0.3% alcohol) it was “+”. For the same compound, the bacterial growth entry is “+” in the data set on MRSA 16 (0.125% PMD, 0.6% alcohol); “+” with MRSA 16 (0.25% PMD, 1.25% alcohol); “−” with MRSA 16 (0.5% PMD, 2.5% alcohol); “−” in the data set on MRSA 16 (1% PMD, 5% alcohol); “−” with MRSA 16 (2% PMD, 10% alcohol); “+” in the data set with S. aureus (oxford) (0.06% PMD, 0.3% alcohol). Further, the bacterial growth result in the data set with S. aureus (oxford) (0.125% PMD, 0.6% alcohol) is listed as “+”; with S. aureus (oxford) (0.25% PMD, 1.25% alcohol) it was “+”; in the data set on S. aureus (oxford) (0.5% PMD, 2.5% alcohol), “−”; with S. aureus (oxford) (1% PMD, 5% alcohol) it was “−”; in the data set with S. aureus (oxford) (2% PMD, 10% alcohol), “−”; in the data set with P. aeruginosa (0.06% PMD, 0.3% alcohol), “+”. Further, the bacterial growth entry in the data set with P. aeruginosa (0.125% PMD, 0.6% alcohol) is given as “+”; in the data set with P. aeruginosa (0.25% PMD, 1.25% alcohol) it was “+”; in the data set with P. aeruginosa (0.5% PMD, 2.5% alcohol), “−”; with P. aeruginosa (1% PMD, 5% alcohol), “−”; in the data set on P. aeruginosa (2% PMD, 10% alcohol), “−”.
